From patent US7687484B2, “Transporter enhanced corticosteroid activity” (priority 2006, dated 2010)
Entries after “also recorded” stand apart in the source; their conditions may differ. Where two headings read alike, the source gives them in different places.

Tests used:
[1] = target: T1, Corticosteroid Binding Globulin (CBG), transcortin (Homo sapiens, UniProt P08185); details: cited from earlier work; for Class: CBG binding activity class; for Log 1/K: CBG binding affinity, literature data
T1 sequence (P08185 23-405): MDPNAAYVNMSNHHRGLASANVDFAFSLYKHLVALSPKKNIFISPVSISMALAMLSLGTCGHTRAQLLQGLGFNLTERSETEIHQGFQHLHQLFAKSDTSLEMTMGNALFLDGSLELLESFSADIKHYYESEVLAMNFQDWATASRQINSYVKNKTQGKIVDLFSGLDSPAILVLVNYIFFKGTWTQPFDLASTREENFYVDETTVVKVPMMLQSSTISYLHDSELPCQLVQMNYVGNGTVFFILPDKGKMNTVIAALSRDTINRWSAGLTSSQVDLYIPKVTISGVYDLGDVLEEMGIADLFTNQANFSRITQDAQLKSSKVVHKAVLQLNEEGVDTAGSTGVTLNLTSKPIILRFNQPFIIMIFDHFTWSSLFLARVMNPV

transcortin (CBG) = target: T2, transcortin (CBG) (Homo sapiens, UniProt P08185); test: Binding of corticosteroids to transcortin: 3H-cortisol competition in charcoal-treated diluted plasma
T2 construct: from tissue; host or cells: plasma from venous blood of healthy volunteers, charcoal-treated, diluted 100-fold
T2 sequence (P08185 23-405): T1 sequence (P08185 23-405)
Experimental: Experimental procedure: Venous blood was collected from healthy volunteers into heparin-containing tubes (5 Us/100 ml serum) and cells were separated from plasma by centrifugation (1500 g for 15 min). […] Charcoal-treated plasma was diluted 100-fold with binding buffer (10 mM Tris-HCl; 2 mM DTT (dithiotreitol); 1.5 mM EDTA; 0.02 M Na2MoO4; 10% Glycerol; pH 7.4) and was stored aliquoted at −80° C. […] The assay ingredients were mixed and the tubes were incubated for 1 hour on ice. At the end of the incubation, 0.2 ml of charcoal suspension (0.5% Norit A and 0.05% BSA) was added to each tube. The tubes were briefly agitated and incubated for an additional 10 min at 0° C. They were then centrifuged for 10 min at 15 000 g, and the same aliquots from the clear supernatants were quantitatively decanted into counting vials and combined with 3 ml of toluene-based scintillation fluid. […] Specific binding and IC50-values were calculated.

[2] = test system: forearms of human volunteers; test: Human vasoconstriction (blanching) testing; format: in vivo; set-up: key to Vasoconstriction activity (total score of 4 tests): sum of 4 tests, each 0 = normal skin to 4 = very intense pallor
Experimental: Solutions of LE, HC and PRN (0.1 or 1 mM) alone, or mixtures of LE and HC (0.1+0.1 mM, or 1+1 mM), or LE and PRN (0.1+0.1 mM, or 1+1 mM) were prepared with a vehicle containing absolute ethanol and propylene glycol (9:1). […] After evaporation of ethanol (20 min), the films were applied to the forearms of human volunteers for 4 hours. Subsequently, the vasoconstriction reaction was read and judged by the appearance of pallor at various time intervals after the removal of the discs and films. The grading scale was as follows: 0, normal skin; 1, slight pallor; 2, pallor with at least two corners outlined; 3, even pallor with a clear outlined of the application sites; 4, very intense pallor. Due to the relatively high variations in response between the volunteers, a total score of 4 tests at each time point was taken for the activity evaluation.

[3] = 3 nM 3H-cortisol, 1 hour on ice, plasma diluted 100-fold, read-out: IC50-values (nM) average ± SEM (n)
[4] = estimated, unpublished results Bodor, Kurucz 2006, read-out: CBG Est. IC50

| Structure (SMILES) | Class [1] | Log 1/K [1] | further results |
| --- | --- | --- | --- |
| C[C@@H]1C[C@@]2(C)C(=CC1=O)CC[C@H]1[C@@H]3CC[C@](O)(C(=O)CO)[C@@]3(C)C[C@H](O)[C@@]12F [2α-methyl-9α-fluoro-cortisol] | 2 | −5.797 |  |
| CC1CC2(C)C(=CC1=O)CCC1C2C(O)CC2(C)C1CCC2(O)C(=O)CO (stereo not drawn) [2α-methylcortisol] | 1 | −7.688 |  |
| C[C@]12CCC(=O)C=C1CC[C@@H]1[C@@H]2CC[C@]2(C)C(=O)CC[C@@H]12 [4-androstenedione] | 3 | −5.763 |  |
| CC(=O)[C@H]1CC[C@H]2[C@@H]3CCC4=CC(=O)CC[C@]4(C)[C@H]3C(=O)C[C@]12C [4-pregnene-3,11,20-trione] | 2 | −6.779 |  |
| C[C@]12CC[C@H]3[C@@H](CCC4=CC(=O)CC[C@@]43C)[C@@H]1CC[C@@H]2C(=O)CO [11-deoxycorticosterone] | 1 | −7.653 |  |
| C[C@]12CCC(=O)C=C1CC[C@@H]1[C@@H]2CC[C@@]2(C)[C@H]1CC[C@]2(O)C(=O)CO [11-deoxycortisol] | 1 | −7.881 |  |
| CC(=O)[C@@]1(O)[C@H](O)C[C@H]2[C@@H]3CCC4=CC(=O)CC[C@]4(C)[C@H]3CC[C@@]21C [16α,17α-dihydroxyprogesterone] | 2 | −6.247 |  |
| CC(=O)[C@H]1[C@H](C)C[C@H]2[C@@H]3CCC4=CC(=O)CC[C@]4(C)[C@H]3CC[C@@]21C [16α-methylprogesterone] | 1 | −7.120 |  |
| CC(=O)[C@@]1(O)CC[C@H]2[C@@H]3CC=C4C[C@@H](O)CC[C@]4(C)[C@H]3CC[C@@]21C [17α-hydroxypregnenolone] | 3 | −5.000 |  |
| CC(=O)[C@@]1(O)CC[C@H]2[C@@H]3CCC4=CC(=O)CC[C@]4(C)[C@H]3CC[C@@]21C [17α-hydroxyprogesterone] | 1 | −7.740 |  |
| CC(=O)[C@H]1CC[C@H]2[C@@H]3CCC4=CC(=O)CC[C@@H]4[C@H]3CC[C@]12C [19-norprogesterone] | 2 | −6.817 |  |
| C[C@]12CC[C@H]3[C@@H](CCC4=CC(=O)CC[C@@H]43)[C@@H]1CC[C@@H]2O [19-nortestosterone] | 2 | −6.144 |  |
| COC(=O)[C@@]1(O)CCC2C3CCC4=CC(=O)CC[C@]4(C)C3[C@@H](O)C[C@@]21C (stereo partly drawn) [CA-Me GYKI-25806] |  |  | IC50 (transcortin (CBG); [3]): 5.9 ± 1.4 nM |
| C[C@]12C=CC(=O)C=C1CC[C@@H]1[C@@H]2[C@@H](O)C[C@@]2(C)[C@H]1C[C@H]1O[C@@H](C3CCCCC3)O[C@]12C(=O)CO [Ciclesonide, act. metab.] |  |  | IC50 (transcortin (CBG); [4]): > 10000 nM |
| C[C@@H]1C[C@H]2[C@@H]3CCC4=CC(=O)C=C[C@]4(C)[C@@]3(Cl)[C@@H](O)C[C@]2(C)[C@@]1(OC(=O)c1ccco1)C(=O)CCl [Mometasone furoate] |  |  | IC50 (transcortin (CBG); [4]): > 10000 nM |
| C[C@]12C=CC(=O)C=C1CCC1C2[C@@H](O)C[C@@]2(C)C1CC[C@]2(O)C(=O)CO (stereo partly drawn) [Prednisolone, prednisolone] | 1 |  | IC50 (transcortin (CBG); CBG Est. IC50 (nM), estimated, unpublished results Bodor, Kurucz 2006): 7 nM; IC50 (transcortin (CBG); IC50-values (nM) average ± SEM (n), 3 nM 3H-cortisol, 1 hour on ice, plasma diluted 100-fold): 6.7 ± 1.6 nM; Vasoconstriction activity (total score of 4 tests) ([2]; 0.1 mM, 2 hr after removal, 4 h application): 0; Vasoconstriction activity (total score of 4 tests) ([2]; 0.1 mM, 4 hr after removal): 0; Vasoconstriction activity (total score of 4 tests) ([2]; 0.1 mM, 6 hr after removal): 0; Vasoconstriction activity (total score of 4 tests) ([2]; 0.1 mM, 8 hr after removal): 0; Vasoconstriction activity (total score of 4 tests) ([2]; 0.1 mM, 10 hr after removal): 0; Vasoconstriction activity (total score of 4 tests) ([2]; 0.1 mM, 16 hr after removal): 0; Vasoconstriction activity (total score of 4 tests) ([2]; 0.1 mM, 18 hr after removal): 0; Vasoconstriction activity (total score of 4 tests) ([2]; 0.1 mM, 24 hr after removal): 0; Vasoconstriction activity (total score of 4 tests) ([2]; 1 mM, 2 hr after removal, 4 h application): 0; Vasoconstriction activity (total score of 4 tests) ([2]; 1 mM, 4 hr after removal): 0; Vasoconstriction activity (total score of 4 tests) ([2]; 1 mM, 6 hr after removal): 0; Vasoconstriction activity (total score of 4 tests) ([2]; 1 mM, 8 hr after removal): 0; Vasoconstriction activity (total score of 4 tests) ([2]; 1 mM, 10 hr after removal): 0; Vasoconstriction activity (total score of 4 tests) ([2]; 1 mM, 16 hr after removal): 0; Vasoconstriction activity (total score of 4 tests) ([2]; 1 mM, 18 hr after removal): 0; Vasoconstriction activity (total score of 4 tests) ([2]; 1 mM, 24 hr after removal): 0; Vasoconstriction activity alone (in words) ([2]; by itself, concentration range 0.1 to 1 mM, human skin, listed as PRN): do not yield any detectable activity; also recorded: no activity |
| C[C@]12C=CC(=O)C=C1CCC1C2C(=O)C[C@@]2(C)C1CC[C@]2(O)C(=O)CO (stereo partly drawn) [Prednisone, prednisone] |  |  | IC50 (transcortin (CBG); [3]): 36 ± 11 nM |
| C[C@]12CCC(=O)C=C1CC[C@@H]1[C@@H]2[C@@H](O)C[C@]2(C=O)[C@@H](C(=O)CO)CC[C@@H]12 [aldosterone] | 2 | −6.279 |  |
| C[C@]12CCC(O)C[C@@H]1CC[C@@H]1[C@@H]2CC[C@]2(C)[C@@H](O)CC[C@@H]12 (stereo partly drawn) [androstanediol] | 3 | −5.000 |  |
| CCCC1O[C@@H]2C[C@H]3[C@@H]4CCC5=CC(=O)C=C[C@]5(C)[C@H]4[C@@H](O)C[C@]3(C)[C@]2(C(=O)CO)O1 (stereo partly drawn) [budesonide (BUD), budesonide] |  |  | IC50 (transcortin (CBG); [4]): > 10000 nM |
| CC(=O)OCC(=O)[C@@]1(O)CC[C@H]2[C@@H]3CCC4=CC(=O)CC[C@]4(C)[C@H]3[C@@H](O)C[C@@]21C [cortisolacetat] | 1 | −7.553 |  |
| C[C@]12CCC(=O)C=C1CC[C@@H]1[C@@H]2C(=O)C[C@@]2(C)[C@H]1CC[C@]2(O)C(=O)CO [cortisone] | 2 | −6.892 |  |
| C[C@]12CC[C@H](O)CC1=CC[C@@H]1[C@@H]2CC[C@]2(C)C(=O)CC[C@@H]12 [dehydroepiandrosterone] | 3 | −5.000 |  |
| C[C@]12C[C@@H](O)[C@H]3[C@@H](CCC4=CC(=O)CC[C@@]43C)[C@@H]1CC[C@@H]2C(=O)CO [epicorticosterone] | 1 | −7.200 |  |
| C[C@]12CC[C@@H]3c4ccc(O)cc4CC[C@H]3[C@@H]1C[C@@H](O)[C@@H]2O [estriol] | 3 | −5.000 |  |
| CC(=O)[C@H]1CC[C@H]2[C@@H]3CC=C4C[C@@H](O)CC[C@]4(C)[C@H]3CC[C@]12C [pregnenolone] | 3 | −5.225 |  |
| CC(=O)[C@H]1CC[C@H]2[C@@H]3CCC4=CC(=O)CC[C@]4(C)[C@H]3CC[C@]12C [progesterone] | 1 | −7.380 |  |
| C[C@]12CC[C@H]3[C@@H](CCC4=CC(=O)CC[C@@]43C)[C@@H]1CC[C@@H]2O [testosterone] | 2 | −6.724 |  |
